ChEMBL document CHEMBL5120885, “Neopetrosins A-D and Haliclorensin D, Indole-C-Mannopyranosides and a Diamine Alkaloid Isolated from the South China Sea Marine Sponge Neopetrosia chaliniformis” (J Nat Prod, 2022)
Calls of active or inactive are those of the source. The rule behind the calls is not given here.

Key:
Assay type in all cases: functional, organism-based
[1] = species on record: Danio rerio; test: Hepatoprotective activity in ethanol induced liver injury in transgenic zebrafish T3 (L- FABP:EGFP) model assessed as change in liver size at 50 uM incubated for 72 hrs by fluorescence microscopic analysis
[2] = species on record: Danio rerio; test: Hepatoprotective activity in isoniazid induced liver injury in transgenic zebrafish T3 (L- FABP:EGFP) model assessed as change in liver size at 50 uM incubated for 72 hrs by fluorescence microscopic analysis
[3] = species on record: Danio rerio; test: Hepatoprotective activity in isoniazid induced liver injury in transgenic zebrafish T3 (L- FABP:EGFP) model assessed as change in liver size at 20 uM incubated for 72 hrs by fluorescence microscopic analysis
[4] = species on record: Danio rerio; test: Hepatoprotective activity in ethanol induced liver injury in transgenic zebrafish T3 (L- FABP:EGFP) model assessed as change in liver size at 20 uM incubated for 72 hrs by fluorescence microscopic analysis

| SMILES | Activity [1] | Activity [2] | Activity [3] | Activity [4] |
| --- | --- | --- | --- | --- |
| C[S+](CC[C@H](N)C(=O)[O-])C[C@H]1O[C@@H](n2cnc3c(N)ncnc32)[C@H](O)[C@@H]1O (stereo partly drawn) | Active | Active |  |  |
| C[C@@H]1NC(=O)[C@H](Cc2c([C@H]3O[C@H](CO)[C@@H](O)[C@H](O)[C@@H]3O)[nH]c3ccccc23)NC1=O |  |  | Active | Active |
| NCC(=O)c1c([C@H]2O[C@H](CO)[C@@H](O)[C@H](O)[C@@H]2O)[nH]c2ccccc12 |  |  | Active | Active |
| O=C1O[C@H]2[C@@H](O)[C@H](O)[C@@H](CO)O[C@@H]2c2[nH]c3ccccc3c21 |  |  | Active | Active |
